Data from patent US7452887B2, “Quinoline- and isoquinoline-based compounds exhibiting ATP-utilizing enzyme inhibitory activity, and compositions, and uses thereof” (Amphora Discovery Corporation, priority 2004, dated 2008).

Experiments:
Assay in all cases: HTS ATP-utilizing enzyme assay, off-chip mobility-shift (Caliper HTS 250)
Assay type in all cases: biochemical
Conditions in all cases: test compound 10 μM, kinase listed = active (greater than six-sigma from the mean activity of inactive compounds)
MAPKAPK2 = MAPKAPK2 (Homo sapiens, UniProt P49137)
Summary of the method: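 Phosphorylation of a peptide substrate was quantified by Caliper mobility-shift separation of substrate and product after 2.5 h at 20-22 °C, with compounds tested at 10 μM. Inhibition was normalized to EDTA-quenched (100%) and DMSO (0%) controls; six-sigma thresholds flagged actives.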

AKT1 = AKT1 (Homo sapiens, UniProt P31749)
Summary of the method: (§1)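 Single-point screen, 10 μM compound; kinase + peptide substrate, HEPES pH 7.5/Triton X-100/BSA; 2.5 hrs, 20–22° C.; EDTA stop. Readout: substrate vs phosphoproduct ratio by off-chip mobility shift. Hits called at six-sigma limits.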

NEK2 = target: T1, NEK2 (Homo sapiens, UniProt P51955)
T1 sequence (P51955 1-445): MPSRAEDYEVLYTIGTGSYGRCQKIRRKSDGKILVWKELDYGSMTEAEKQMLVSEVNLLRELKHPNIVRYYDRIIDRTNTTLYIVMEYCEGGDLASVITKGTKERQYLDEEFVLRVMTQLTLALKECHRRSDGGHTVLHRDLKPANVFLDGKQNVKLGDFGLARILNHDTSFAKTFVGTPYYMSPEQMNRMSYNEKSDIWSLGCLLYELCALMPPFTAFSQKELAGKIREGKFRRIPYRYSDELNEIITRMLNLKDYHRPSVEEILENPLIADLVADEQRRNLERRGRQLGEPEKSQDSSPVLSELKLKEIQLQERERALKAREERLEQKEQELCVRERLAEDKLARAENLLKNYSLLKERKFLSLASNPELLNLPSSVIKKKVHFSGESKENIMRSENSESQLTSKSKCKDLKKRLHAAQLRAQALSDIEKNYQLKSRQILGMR
Summary of the method: as §1

PRAK = target: T2, PRAK (Homo sapiens, UniProt Q8IW41)
T2 sequence (Q8IW41 1-473): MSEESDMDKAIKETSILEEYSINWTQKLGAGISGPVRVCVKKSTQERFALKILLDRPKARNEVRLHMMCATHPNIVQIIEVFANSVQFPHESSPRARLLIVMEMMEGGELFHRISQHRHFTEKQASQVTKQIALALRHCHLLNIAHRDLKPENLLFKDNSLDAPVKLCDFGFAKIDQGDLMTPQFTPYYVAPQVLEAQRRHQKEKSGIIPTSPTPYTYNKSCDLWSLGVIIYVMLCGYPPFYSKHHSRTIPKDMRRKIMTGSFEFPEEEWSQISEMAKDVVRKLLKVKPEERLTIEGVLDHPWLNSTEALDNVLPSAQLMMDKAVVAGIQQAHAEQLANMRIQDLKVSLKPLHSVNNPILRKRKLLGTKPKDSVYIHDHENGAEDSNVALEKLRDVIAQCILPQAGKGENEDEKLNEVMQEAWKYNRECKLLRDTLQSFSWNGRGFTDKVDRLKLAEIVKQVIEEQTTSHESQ
Summary of the method: as §1

AKT3 = AKT3 (Homo sapiens, UniProt Q9Y243)
Summary of the method: as §1

Sequence of AKT3 (Q9Y243 whole entry): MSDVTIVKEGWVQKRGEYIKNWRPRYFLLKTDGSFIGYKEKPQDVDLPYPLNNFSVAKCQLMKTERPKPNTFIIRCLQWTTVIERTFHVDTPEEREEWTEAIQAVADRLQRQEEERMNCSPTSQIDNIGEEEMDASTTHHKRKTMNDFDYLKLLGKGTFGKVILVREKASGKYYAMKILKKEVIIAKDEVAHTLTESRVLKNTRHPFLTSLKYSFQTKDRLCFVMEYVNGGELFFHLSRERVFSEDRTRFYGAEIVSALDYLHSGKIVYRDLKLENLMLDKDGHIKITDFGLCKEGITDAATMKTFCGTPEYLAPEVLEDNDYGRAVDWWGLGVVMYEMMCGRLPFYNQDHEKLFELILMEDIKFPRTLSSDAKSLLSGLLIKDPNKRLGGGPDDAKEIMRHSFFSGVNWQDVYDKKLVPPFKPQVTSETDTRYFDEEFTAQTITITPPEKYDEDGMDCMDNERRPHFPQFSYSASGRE
Sequence of MAPKAPK2 (P49137 whole entry): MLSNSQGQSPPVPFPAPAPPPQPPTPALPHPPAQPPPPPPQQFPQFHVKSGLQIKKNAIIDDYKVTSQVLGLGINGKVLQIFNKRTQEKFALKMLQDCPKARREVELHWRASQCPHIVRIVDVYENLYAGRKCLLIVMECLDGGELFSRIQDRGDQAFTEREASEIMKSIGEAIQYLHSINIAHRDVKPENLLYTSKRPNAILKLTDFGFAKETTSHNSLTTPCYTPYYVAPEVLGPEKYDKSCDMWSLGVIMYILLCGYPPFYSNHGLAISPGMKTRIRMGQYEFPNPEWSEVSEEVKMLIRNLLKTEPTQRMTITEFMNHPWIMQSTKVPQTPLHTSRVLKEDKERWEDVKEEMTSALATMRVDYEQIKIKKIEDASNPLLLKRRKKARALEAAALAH
Sequence of AKT1 (P31749 whole entry): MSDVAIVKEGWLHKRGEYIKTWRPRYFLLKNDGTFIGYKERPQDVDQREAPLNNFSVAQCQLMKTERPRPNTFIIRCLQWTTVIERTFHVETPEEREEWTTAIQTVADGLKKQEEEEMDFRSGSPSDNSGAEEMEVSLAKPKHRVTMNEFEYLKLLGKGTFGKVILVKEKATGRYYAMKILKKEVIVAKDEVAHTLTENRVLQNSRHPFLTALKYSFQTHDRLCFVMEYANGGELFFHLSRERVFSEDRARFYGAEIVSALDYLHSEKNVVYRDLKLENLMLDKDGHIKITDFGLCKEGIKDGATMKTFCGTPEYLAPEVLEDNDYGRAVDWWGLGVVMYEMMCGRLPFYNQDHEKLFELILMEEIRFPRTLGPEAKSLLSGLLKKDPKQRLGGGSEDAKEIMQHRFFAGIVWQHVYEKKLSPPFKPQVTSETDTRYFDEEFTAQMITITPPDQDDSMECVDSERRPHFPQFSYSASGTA

Activity (MAPKAPK2): MAPKAPK2 | Activity (AKT1): AKT1 | Activity (NEK2): NEK2 | Activity (PRAK): PRAK | Activity (AKT3): AKT3
SMILES: CN1CCN(c2ccc(Nc3ccnc4ccc(-c5cccc(C#N)c5)cc34)cc2)CC1 [3-(4-(4-(4-methylpiperazin-1-yl)phenylamino)quinolin-6-yl)benzonitrile]
